The source of these data is ChEMBL document CHEMBL5550200, “Back-Pocket Optimization of 2-Aminopyrimidine-Based Macrocycles Leads to Potent EPHA2/GAK Kinase Inhibitors” (J Med Chem, 2024).

One may read the CC50 as the concentration at which the toxic effect on the cells reaches its halfway point. For orientation: half-life means the time in which the quantity being followed falls by half. In general, EC50 refers to the concentration at which the effect is half-maximal. For orientation: EC90 means the concentration at which the effect reaches the 90% level. Broadly, the solubility is the concentration that dissolves in the medium under given conditions. Higher therefore signals much dissolved substance.

Values after ≈ are worked out from the molar mass of the structure shown.

The target of series [1] is Ephrin type-A receptor 5 (Homo sapiens) (UniProt P54756).
Sequence of Ephrin type-A receptor 5 (Homo sapiens) (P54756 whole entry): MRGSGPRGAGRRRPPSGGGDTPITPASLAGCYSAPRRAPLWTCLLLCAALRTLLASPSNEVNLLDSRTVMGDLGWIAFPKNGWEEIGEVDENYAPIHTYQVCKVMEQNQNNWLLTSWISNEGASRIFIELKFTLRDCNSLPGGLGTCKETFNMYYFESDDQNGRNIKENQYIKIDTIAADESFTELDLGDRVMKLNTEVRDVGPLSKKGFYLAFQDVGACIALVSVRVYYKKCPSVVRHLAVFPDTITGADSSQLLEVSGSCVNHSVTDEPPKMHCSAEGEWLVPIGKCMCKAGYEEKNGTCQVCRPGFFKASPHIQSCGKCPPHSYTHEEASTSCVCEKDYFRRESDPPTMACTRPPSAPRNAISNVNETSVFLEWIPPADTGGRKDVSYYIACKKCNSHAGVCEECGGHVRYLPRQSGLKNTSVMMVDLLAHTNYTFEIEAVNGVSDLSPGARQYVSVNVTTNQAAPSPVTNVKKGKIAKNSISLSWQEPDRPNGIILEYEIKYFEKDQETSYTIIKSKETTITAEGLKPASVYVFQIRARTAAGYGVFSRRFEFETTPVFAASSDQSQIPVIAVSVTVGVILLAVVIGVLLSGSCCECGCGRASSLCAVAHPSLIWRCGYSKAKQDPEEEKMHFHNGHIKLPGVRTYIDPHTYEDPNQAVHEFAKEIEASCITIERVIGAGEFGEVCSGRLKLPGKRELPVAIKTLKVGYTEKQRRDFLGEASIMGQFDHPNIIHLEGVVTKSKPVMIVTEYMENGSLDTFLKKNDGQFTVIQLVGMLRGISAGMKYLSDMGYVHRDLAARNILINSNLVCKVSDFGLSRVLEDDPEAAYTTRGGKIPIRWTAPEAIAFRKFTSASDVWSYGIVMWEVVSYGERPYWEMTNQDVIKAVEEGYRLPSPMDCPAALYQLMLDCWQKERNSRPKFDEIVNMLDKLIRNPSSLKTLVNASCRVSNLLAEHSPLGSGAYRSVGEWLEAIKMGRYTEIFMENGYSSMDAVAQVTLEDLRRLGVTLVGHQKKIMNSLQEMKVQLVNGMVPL
Description: Induction of stabilization of recombinant EPHA5 (unknown origin) assessed as change in melting temperature by differential scanning fluorimetry assay
Series [2] addresses Ephrin type-A receptor 7 (Homo sapiens) (UniProt Q15375). In words: Induction of stabilization of recombinant EPHA7 (unknown origin) assessed as change in melting temperature by differential scanning fluorimetry assay. A general note: Differential scanning fluorimetry follows unfolding on heating by fluorescence.
A short description of series [3]: Metabolic stability in Sprague-Dawley rat liver microsomes assessed as parent compound remaining at 10 uM measured after 60 min by HPLC analysis. The format is ADME, Microsome. The conditions noted are these: read-out: Stability. A general note: Liver microsomes are vesicles of endoplasmic reticulum, rich in cytochrome P450 enzymes.
Series [4] concerns the target T1, Fibroblast growth factor receptor 1 (Homo sapiens, UniProt P11362).
Target sequence in this assay (P11362 22-822 limits assumed): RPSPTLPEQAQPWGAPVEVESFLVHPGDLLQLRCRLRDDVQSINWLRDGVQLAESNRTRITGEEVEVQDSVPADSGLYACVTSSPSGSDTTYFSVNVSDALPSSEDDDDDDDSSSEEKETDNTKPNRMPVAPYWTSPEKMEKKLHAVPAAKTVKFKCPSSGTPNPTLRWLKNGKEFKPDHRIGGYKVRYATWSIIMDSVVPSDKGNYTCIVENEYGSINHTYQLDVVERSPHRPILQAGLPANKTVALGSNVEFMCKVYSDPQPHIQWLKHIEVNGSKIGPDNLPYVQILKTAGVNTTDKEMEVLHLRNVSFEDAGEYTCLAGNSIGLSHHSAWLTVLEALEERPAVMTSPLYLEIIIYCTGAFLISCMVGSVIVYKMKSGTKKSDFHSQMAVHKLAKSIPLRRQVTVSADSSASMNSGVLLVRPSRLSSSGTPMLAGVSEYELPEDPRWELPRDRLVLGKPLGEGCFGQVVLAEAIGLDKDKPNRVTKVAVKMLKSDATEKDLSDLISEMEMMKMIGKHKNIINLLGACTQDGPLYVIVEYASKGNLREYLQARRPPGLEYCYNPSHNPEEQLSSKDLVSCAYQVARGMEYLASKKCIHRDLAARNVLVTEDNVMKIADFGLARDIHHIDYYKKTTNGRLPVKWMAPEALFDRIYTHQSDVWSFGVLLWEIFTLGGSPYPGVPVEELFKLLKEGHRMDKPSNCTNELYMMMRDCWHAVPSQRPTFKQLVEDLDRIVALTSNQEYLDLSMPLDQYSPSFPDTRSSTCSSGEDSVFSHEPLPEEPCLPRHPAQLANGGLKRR
Description: Induction of stabilization of recombinant FGFR1 (unknown origin) assessed as change in melting temperature by differential scanning fluorimetry assay
Series [5] has as its system Huh-7. In words: Cytotoxicity against human Huh-7 cells assessed as reduction in cell viability by alamar blue reagent based analysis. The format is functional. On the technique in general: Alamar Blue is a resazurin reagent that responds to reducing activity.
Series [6] deals with T2, Ephrin type-B receptor 1 (Homo sapiens) (UniProt P54762).
T2 sequence (whole entry): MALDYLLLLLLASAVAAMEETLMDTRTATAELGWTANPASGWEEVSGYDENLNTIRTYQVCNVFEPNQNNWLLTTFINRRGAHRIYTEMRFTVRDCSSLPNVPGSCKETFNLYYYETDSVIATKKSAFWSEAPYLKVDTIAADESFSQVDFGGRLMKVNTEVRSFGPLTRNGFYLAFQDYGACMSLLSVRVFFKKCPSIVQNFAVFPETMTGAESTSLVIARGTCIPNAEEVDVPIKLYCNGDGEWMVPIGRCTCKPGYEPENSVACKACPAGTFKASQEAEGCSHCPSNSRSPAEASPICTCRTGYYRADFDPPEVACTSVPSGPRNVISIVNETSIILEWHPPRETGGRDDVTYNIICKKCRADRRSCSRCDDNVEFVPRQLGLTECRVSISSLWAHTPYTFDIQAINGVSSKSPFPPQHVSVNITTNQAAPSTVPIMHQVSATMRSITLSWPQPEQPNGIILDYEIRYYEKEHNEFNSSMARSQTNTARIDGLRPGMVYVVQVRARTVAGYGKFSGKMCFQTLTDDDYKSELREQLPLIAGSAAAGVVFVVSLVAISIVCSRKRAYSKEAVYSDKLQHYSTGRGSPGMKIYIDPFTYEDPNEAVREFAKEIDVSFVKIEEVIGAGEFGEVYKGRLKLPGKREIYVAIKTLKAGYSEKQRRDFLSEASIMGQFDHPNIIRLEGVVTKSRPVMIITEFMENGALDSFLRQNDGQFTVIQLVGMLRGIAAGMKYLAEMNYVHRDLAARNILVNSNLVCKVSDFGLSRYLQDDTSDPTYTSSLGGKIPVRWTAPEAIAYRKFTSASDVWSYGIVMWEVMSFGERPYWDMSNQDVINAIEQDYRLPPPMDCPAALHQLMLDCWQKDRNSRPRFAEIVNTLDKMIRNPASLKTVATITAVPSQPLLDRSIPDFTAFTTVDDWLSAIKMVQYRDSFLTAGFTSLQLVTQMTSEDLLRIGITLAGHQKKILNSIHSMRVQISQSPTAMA
The experiment in a line: Induction of stabilization of recombinant EPHB1 (unknown origin) assessed as change in melting temperature by differential scanning fluorimetry assay.

Series [7] concerns the target Fibroblast growth factor receptor 2 (Homo sapiens) (UniProt P21802).
Description: Induction of stabilization of recombinant FGFR2 (unknown origin) assessed as change in melting temperature by differential scanning fluorimetry assay
For series [8], the target named is T3, Ephrin type-A receptor 4 (Homo sapiens, UniProt P54764). In words: Induction of stabilization of recombinant EPHA4 (unknown origin) assessed as change in melting temperature by differential scanning fluorimetry assay.
T3 sequence (P54764 whole entry): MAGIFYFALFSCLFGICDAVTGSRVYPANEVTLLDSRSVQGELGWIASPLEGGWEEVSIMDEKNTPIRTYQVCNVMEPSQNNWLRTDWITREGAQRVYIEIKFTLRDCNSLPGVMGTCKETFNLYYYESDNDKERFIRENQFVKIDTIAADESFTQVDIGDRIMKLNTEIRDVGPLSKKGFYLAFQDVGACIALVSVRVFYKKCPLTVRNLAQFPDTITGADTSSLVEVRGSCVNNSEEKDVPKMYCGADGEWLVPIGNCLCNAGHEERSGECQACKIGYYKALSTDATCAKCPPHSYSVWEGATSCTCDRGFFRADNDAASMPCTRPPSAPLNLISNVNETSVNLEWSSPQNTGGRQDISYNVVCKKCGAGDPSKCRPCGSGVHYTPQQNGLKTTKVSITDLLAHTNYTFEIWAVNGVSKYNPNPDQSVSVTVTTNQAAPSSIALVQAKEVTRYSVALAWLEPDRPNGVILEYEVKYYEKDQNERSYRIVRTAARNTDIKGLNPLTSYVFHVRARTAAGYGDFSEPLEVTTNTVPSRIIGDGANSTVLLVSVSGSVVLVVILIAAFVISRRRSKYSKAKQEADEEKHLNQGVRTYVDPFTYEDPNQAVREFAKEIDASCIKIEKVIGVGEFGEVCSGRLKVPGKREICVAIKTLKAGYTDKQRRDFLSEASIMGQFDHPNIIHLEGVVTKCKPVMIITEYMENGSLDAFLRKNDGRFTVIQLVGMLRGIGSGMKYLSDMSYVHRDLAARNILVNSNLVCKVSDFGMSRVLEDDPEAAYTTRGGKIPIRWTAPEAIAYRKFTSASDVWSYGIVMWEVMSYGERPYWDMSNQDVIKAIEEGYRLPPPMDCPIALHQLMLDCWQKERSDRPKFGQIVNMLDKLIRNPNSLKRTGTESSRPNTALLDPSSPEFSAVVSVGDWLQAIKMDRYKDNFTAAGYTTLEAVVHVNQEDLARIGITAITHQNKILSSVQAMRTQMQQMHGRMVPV
For series [9], the target named is T4, Ephrin type-B receptor 3 (Homo sapiens) (UniProt P54753).
T4 sequence (whole entry): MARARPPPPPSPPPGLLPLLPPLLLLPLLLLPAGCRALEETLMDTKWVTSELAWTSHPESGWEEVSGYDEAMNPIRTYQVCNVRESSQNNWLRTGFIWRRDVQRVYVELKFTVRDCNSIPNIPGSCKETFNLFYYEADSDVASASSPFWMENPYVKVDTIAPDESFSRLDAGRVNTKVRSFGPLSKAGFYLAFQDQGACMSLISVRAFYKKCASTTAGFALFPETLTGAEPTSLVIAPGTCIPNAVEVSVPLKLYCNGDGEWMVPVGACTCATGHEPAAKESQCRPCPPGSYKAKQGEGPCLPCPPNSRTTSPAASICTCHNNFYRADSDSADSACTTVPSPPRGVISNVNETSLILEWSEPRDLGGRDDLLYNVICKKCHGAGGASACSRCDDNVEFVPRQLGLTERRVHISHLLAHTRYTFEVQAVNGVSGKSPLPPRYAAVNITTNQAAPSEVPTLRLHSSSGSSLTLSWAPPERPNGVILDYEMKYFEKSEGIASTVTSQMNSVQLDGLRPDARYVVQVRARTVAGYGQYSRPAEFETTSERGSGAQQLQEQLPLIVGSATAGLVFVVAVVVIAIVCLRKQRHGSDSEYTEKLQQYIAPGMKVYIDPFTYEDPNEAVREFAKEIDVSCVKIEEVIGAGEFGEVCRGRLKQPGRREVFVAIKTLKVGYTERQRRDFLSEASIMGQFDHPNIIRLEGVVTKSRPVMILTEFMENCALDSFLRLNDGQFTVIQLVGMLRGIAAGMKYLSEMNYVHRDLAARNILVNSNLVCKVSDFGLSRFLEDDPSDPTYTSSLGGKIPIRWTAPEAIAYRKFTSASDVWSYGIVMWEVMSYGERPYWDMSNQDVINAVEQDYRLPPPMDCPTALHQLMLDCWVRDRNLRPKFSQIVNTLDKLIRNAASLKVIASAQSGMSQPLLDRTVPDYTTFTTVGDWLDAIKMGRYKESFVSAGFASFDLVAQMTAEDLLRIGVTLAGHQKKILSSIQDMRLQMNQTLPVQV
In words: Induction of stabilization of recombinant EPHB3 (unknown origin) assessed as change in melting temperature by differential scanning fluorimetry assay.

Series [10] can be described thus: Metabolic stability in Sprague-Dawley rat liver microsomes assessed as half life at 10 uM preincubated for 5 mins followed by NADPH regenerating system measured upto 60 min by HPLC analysis. The format is ADME, Microsome. The conditions noted are these: time < 65 min.
Series [11] has as its target T5, Vascular endothelial growth factor receptor 1 (Homo sapiens, UniProt P17948). The experiment in a line: Induction of stabilization of recombinant FLT1 (unknown origin) assessed as change in melting temperature by differential scanning fluorimetry assay.
Series [12] has as its system dengue virus type 2. The experiment in a line: Antiviral activity against DENV-2 New Guinea C infected in human Huh-7 cells assessed as reduction in virus induced cytopathic effect preincubated with cells for 1 hr followed by viral infection and measured after 45 to 48 hrs by luciferase assay. The series is classed as functional, organism-based. The settings on record: for EC90: time 45-48 hrs.

Series [13] is described as follows: Solubility of the compound measured after 24 hrs by HPLC/MS analysis. The series is classed as physicochemical.
Series [14] addresses T5, Vascular endothelial growth factor receptor 1. In words: Inhibition of full length FLT1 (unknown origin) expressed in HEK293T cells using NanoBRET NanoGlo substrate incubated for 2 hrs in presence of K9 tracer by NanoBRET assay. The format is cell-based.
Series [15] concerns the target T1, Fibroblast growth factor receptor 1. The experiment in a line: Inhibition of full length FGFR1 (unknown origin) expressed in HEK293T cells using NanoBRET NanoGlo substrate incubated for 2 hrs in presence of K10 tracer by NanoBRET assay. The series is classed as cell-based.
The target of series [16] is Tyrosine-protein kinase ABL1 (Homo sapiens, UniProt P00519). In words: Inhibition of full length ABL1 (unknown origin) expressed in HEK293T cells using NanoBRET NanoGlo substrate incubated for 2 hrs in presence of K4 tracer by NanoBRET assay. The format is cell-based.
The target of series [17] is T3, Ephrin type-A receptor 4. The experiment in a line: Inhibition of full length EPHA4 (unknown origin) expressed in HEK293T cells using NanoBRET NanoGlo substrate incubated for 2 hrs in presence of K4 tracer by NanoBRET assay. The series is classed as cell-based.
Series [18] concerns the target T6, Ephrin type-A receptor 2 (Homo sapiens, UniProt P29317).
Description: Induction of stabilization of recombinant EPHA2 (D596 to G900 residues) (unknown origin) expressed in Escherichia coli rosetta BL21(D3)-R3-pRARE2 competent cells assessed as change in melting temperature by differential scanning fluorimetry assay
Series [19] has as its target T6, Ephrin type-A receptor 2. The source holds these as a separate data set.
Description: Binding affinity to recombinant his tagged EPHA2 (D596 to G900 residues) (unknown origin) expressed in Escherichia coli rosetta BL21(D3)-R3-pRARE2 competent cells assessed as dissociation constant by surface plasmon resonance method

Sequence of Fibroblast growth factor receptor 2 (Homo sapiens) (P21802 22-821 limits assumed): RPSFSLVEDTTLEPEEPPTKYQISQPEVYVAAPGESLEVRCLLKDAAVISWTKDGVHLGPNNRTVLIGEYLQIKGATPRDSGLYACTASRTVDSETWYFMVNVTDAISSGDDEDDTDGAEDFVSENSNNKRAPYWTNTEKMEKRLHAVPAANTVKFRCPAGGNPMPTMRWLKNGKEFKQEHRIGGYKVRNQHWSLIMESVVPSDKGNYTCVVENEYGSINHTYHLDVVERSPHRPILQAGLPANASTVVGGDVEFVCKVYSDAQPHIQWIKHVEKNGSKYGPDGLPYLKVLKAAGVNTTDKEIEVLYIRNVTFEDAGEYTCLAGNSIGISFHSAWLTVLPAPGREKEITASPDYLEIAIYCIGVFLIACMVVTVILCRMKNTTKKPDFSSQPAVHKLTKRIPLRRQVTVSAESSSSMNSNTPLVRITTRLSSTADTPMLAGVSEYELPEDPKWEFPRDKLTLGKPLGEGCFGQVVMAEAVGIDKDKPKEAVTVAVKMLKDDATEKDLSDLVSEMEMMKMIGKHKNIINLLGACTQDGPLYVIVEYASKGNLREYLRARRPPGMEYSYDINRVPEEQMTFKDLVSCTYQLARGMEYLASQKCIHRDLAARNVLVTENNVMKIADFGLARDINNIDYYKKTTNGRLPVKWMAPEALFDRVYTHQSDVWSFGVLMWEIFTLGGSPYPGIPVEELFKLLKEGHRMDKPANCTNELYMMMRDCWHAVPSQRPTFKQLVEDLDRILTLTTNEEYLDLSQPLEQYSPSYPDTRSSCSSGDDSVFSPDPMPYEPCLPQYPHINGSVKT
T5 sequence (P17948 whole entry): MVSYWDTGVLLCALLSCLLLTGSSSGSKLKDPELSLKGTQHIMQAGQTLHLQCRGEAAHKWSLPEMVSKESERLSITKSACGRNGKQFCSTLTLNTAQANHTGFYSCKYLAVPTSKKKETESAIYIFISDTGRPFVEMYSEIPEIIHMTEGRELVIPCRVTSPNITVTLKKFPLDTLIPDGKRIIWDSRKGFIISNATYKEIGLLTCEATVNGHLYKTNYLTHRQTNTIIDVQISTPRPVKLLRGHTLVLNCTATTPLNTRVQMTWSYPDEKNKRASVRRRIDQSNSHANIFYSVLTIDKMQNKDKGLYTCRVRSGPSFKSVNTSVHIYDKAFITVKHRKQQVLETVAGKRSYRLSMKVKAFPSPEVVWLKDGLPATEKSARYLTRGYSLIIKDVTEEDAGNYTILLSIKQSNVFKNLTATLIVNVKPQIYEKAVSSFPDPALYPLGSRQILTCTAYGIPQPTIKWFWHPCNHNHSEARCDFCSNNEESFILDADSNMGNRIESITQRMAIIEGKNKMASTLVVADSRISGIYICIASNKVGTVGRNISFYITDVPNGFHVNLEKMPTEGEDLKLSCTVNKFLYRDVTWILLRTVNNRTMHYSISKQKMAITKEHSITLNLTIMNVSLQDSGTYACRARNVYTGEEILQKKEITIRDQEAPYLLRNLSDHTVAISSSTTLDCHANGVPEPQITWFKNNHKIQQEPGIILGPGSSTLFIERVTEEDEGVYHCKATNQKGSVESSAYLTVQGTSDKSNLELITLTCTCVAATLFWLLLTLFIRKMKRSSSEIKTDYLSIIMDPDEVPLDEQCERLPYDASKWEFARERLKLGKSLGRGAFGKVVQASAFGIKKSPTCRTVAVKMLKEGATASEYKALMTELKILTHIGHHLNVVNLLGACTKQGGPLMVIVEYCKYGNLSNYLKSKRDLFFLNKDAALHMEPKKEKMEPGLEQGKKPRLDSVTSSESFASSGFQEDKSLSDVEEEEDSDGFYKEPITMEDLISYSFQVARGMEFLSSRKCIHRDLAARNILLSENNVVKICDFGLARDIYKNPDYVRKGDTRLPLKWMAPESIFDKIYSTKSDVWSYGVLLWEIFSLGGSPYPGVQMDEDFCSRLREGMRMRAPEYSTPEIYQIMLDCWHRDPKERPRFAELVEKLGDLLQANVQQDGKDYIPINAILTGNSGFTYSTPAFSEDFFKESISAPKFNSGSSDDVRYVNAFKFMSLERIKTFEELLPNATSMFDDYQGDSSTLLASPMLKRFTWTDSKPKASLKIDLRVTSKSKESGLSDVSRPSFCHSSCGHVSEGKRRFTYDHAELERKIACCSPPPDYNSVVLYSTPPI

Consider `COc1cc(-c2cnc3nc2NCCCNS(=O)(=O)c2cccc(c2)N3)ccc1Br`, for which the deltaTm in series [1] was found to be 5 K; in series [2], 0.1 K; in series [4], 1.8 K; in series [6], 2.8 K; in [7], 2.4 K; in [8], 3.2 K. In addition, the deltaTm in series [9] worked out at 4 K; in series [11] it was 2.6 K. Also, the remaining at 1 h, 10 µM in series [3] came out at 87%. In [5], the CC50 is above 10 µM. Also, the half-life at 10 µM in series [10] is 4.6 h. The EC50 in series [12] was 5.3 µM. In addition, the EC90 in [12] was found to be 9.8 µM. Besides, in [13], the concentration in solution (solubility at 24 h) came to 2.24 µg/mL (≈ 4.57 µM).
Consider `O=C(Nc1ccccc1Cl)c1cnc2ccc(C3CCNCC3)cn12`, for which, in series [5], the CC50 was above 10 µM. Besides, the EC50 in series [14] is above 50 µM; in series [15], above 50 µM; in series [16] it was 49 µM; in series [17] it was 0.048 µM; in [12], 6.5 µM. Moreover, the EC90 in series [12] was above 10 µM.
For `COc1cc(-c2cnc3nc2NCCCNS(=O)(=O)c2cc(ccc2OC)N3)ccc1F`, the deltaTm in series [1] turned out to be 4.7 K; in series [2], 1 K; in series [4] it was 2 K; in series [6], 3.1 K; in series [7], 3.4 K; in series [8], 4.4 K. In addition, the deltaTm in series [9] turned out to be 1.6 K; in series [11], 1.3 K. For the same molecule, the CC50 in [5] is above 10 µM. Besides, in series [12], the concentration for a half-maximal effect (EC50) is above 10 µM. Moreover, the EC90 in [12] was above 10 µM.
As for `CCNc1nc(Nc2cccc(S(=O)(=O)NC)c2)ncc1-c1ccc(F)c(OC)c1`, in [18], the deltaTm turned out to be 4.2 K. Besides, the Kd result in series [19] was “Not Active”.
Regarding `COCCOc1ccc2cc1S(=O)(=O)NCCCNc1nc(ncc1-c1ccc(F)c(OC)c1)N2`, the deltaTm in [1] was 5.4 K; in series [2], 1 K; in series [4], 2.5 K; in series [6], 2.6 K; in series [7], 4.5 K; in series [8] it was 4.5 K. Besides, the deltaTm in [9] turned out to be 3.1 K; in [11] it was 1.8 K. Further, the CC50 in series [5] is above 10 µM. The concentration giving a half-maximal response (EC50) in series [12] is above 10 µM. For the same molecule, the EC90 in series [12] is above 10 µM.
With `COc1cc(-c2cnc3nc2NCCCNS(=O)(=O)c2cccc(c2)N3)ccc1F`, the deltaTm in [1] was 5.4 K; in series [2], 0.3 K; in series [4], 3.3 K; in [6] it was 4.3 K; in series [7] it was 4.4 K; in [8] it was 3.6 K. Further, the deltaTm is 5.6 K in series [9] and 6.3 K in series [11]. For the same molecule, the CC50 in series [5] was above 10 µM. The half-life at 10 µM in series [10] is 6.6 h. Further, the EC50 in series [12] is above 10 µM. The 90% effect concentration (EC90) in series [12] is above 10 µM.
